From US9296734B2 (AMGEN INC., priority 2013, dated 2016)
Where two headings read alike, the source gives them in different places.

How the values were obtained:
[1] = tested on: Aβ40 in conditioned medium of cells stably expressing Amyloid Precursor Protein (APP); test: In vitro BACE cell-based assay (Aβ40 sandwich ELISA); conditions: Homo sapiens
Method: In Vitro BACE Cell-Based Assay
The cell-based assay measures inhibition or reduction of Aβ40 in conditioned medium of test compound treated cells expressing amyloid precursor protein.
Cells stably expressing Amyloid Precursor Protein (APP) were plated at a density of 40K cells/well in 96 well plates (Costar). The cells were cultivated for 24 hours at 37° C. and 5% CO2 in DMEM supplemented with 10% FBS. The test compounds were then added to cells in 10-point dose response concentrations with the starting concentration being either 100 μM or 10 μM. The compounds were diluted from stock solutions in DMSO and the final DMSO concentration of the test compounds on cells was 0.1%. After 24 h of incubation with the test compounds the supernatant conditioned media was collected and the Aβ 40 levels were determined using a sandwich ELISA. The IC50 of the compound was calculated from the percent of control or percent inhibition of Aβ 40 as a function of the concentration of the test compound.
The sandwich ELISA to detect Aβ 40 was performed in 96 well microtiter plates, which were pre-treated with goat anti-rabbit IgG (Pierce). The capture and detecting antibody pair that were used to detect Aβ 40 from cell supernatants were affinity purified pAb40 (Biosource) and biotinylated 6E10 (Signet Labs Inc.), respectively. The optimal concentration for the pAb40 antibody was 3 μg/ml in Superblock/TBS (Pierce) that was supplemented with 0.05% Tween 20 (Sigma).
Cellular supernatants were incubated with the capture antibody for 3 h at 4° C., followed by 3 wash steps in TBS-tween (0.05%). The detecting antibody incubation was for 2 h at 4° C., again followed by the wash steps as described previously. The final readout of the ELISA is Time-Resolved Fluorescence (counts per minute) using Delfia reagents Streptavidin-Europium and Enhancement solutions (Perkin Elmer) and the Victor 2 multilabel counter (Perkin Elmer).

[2] = biological target: Beta Secretase enzyme (BACE) (Homo sapiens (Human), UniProt P56817); test: In vitro enzymatic BACE FRET assay; type: biochemical; conditions: read-out: BACE 1 FRET assay IC50
Beta Secretase enzyme (BACE), sequence (P56817 46-501): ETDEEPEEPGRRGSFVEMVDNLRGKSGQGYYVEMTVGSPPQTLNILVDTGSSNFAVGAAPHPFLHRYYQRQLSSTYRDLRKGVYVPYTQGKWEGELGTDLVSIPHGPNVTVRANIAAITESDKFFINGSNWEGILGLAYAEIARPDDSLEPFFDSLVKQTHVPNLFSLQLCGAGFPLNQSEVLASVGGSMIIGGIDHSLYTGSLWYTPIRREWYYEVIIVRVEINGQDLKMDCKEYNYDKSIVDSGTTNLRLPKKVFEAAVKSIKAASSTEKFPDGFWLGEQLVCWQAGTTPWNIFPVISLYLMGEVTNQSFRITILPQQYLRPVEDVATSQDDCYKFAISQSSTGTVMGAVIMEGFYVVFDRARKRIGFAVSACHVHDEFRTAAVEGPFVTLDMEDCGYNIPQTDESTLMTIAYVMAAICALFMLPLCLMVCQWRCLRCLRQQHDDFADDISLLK
Method: In Vitro Enzymatic BACE FRET (Fluorescence Resonance Energy Transfer) Assay (Enzyme Assay Data in the Example Table I)
The assay buffer used in this screen is 0.05 M acetate, pH 4.2, 10% DMSO final, 100 uM genapol (which is a nonionic detergent, below its Critical Micelle Concentration). […] This assay is effectively started by the addition of FRET substrate (50 nM) and the combination is incubated for one hour. The FRET assay is terminated with by addition of Tris buffer, which raises the pH to neutrality, and the fluorescence is determined. The FRET substrate is a peptide with commercially available fluorophore and quencher, on opposite sides of the BACE cleavage site.

[3] = biological target: Cathepsin D (Cat D) (Homo sapiens (Human), UniProt P07339); test: In vitro enzymatic Cathepsin D (Cat D) FRET assay; type: biochemical; conditions: read-out: CatD IC50
Cathepsin D (Cat D), sequence (P07339 65-412, species assumed): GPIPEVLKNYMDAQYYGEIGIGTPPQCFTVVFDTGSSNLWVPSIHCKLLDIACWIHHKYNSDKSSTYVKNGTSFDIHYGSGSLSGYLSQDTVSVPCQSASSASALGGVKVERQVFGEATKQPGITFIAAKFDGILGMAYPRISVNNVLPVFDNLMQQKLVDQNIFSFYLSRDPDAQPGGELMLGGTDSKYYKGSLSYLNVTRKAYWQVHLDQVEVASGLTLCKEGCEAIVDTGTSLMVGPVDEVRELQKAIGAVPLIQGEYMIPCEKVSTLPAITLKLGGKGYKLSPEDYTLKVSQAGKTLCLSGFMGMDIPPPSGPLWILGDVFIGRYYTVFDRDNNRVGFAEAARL
Summary of the method: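 CHO-expressed recombinant Cat D cleaves a fluorophore/quencher FRET peptide (20 nM) in 0.05 M citrate pH 3.5, 5 mM CHAPS, 10% DMSO final, over 1 h. Tris addition neutralizes pH to stop the reaction; fluorescence read at excitation 500 nm, emission 580 nm.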

[4] = HEK293, average IC50, HEK cell assay, read-out: HEK cell assay IC50
[5] = average IC50, BACE enzyme assay
[6] = average IC50, cathepsin D enzyme assay
[7] = HEK293, average IC50, HEK cells, read-out: HEK cell assay IC50
[8] = HEK293, HEK cells, average, read-out: HEK cell assay IC50
[9] = HEK293, read-out: HEK cell assay IC50

For `Cc1cc(Cl)cnc1C(=O)Nc1cc(F)c(F)c([C@]2(C)C[C@@H](C(F)(F)F)OC(N)=N2)c1` [Example 170, N-(3-((4S,6S)-2-amino-4-methyl-6-(trifluoromethyl)-5,6-dihydro-4H-1,3-oxazin-4-yl)-4,5-difluorophenyl)-5-chloro-3-methylpicolinamide], which IC50 [1, 4] is on record?
The IC50 was 0.014 µM.

And the IC50 [2, 5]?
The IC50 was 0.0095 µM.

And the IC50 [3, 6]?
Its IC50 is 733 µM.

How did the IC50 [1, 7] turn out when `COc1ccc(C(=O)Nc2cnc(F)c([C@]3(CF)C[C@@H](C(F)(F)F)OC(N)=N3)c2)nc1` [Example 142, N-(5-((4S,6S)-2-amino-4-(fluoromethyl)-6-(trifluoromethyl)-5,6-dihydro-4H-1,3-oxazin-4-yl)-6-fluoropyridin-3-yl)-5-methoxypicolinamide] was run?
Its IC50 is 0.587 µM.

And the IC50 ([2]; average IC50)?
The IC50 was 0.114 µM.

And the IC50 ([3]; average IC50)?
The IC50 was 5520 µM.

What does the source list for `N#Cc1ccc(C(=O)Nc2cnc(F)c([C@]3(CF)C[C@@H](C(F)(F)F)OC(N)=N3)c2)nc1` [Example 141, N-(5-((4S,6S)-2-amino-4-(fluoromethyl)-6-(trifluoromethyl)-5,6-dihydro-4H-1,3-oxazin-4-yl)-6-fluoropyridin-3-yl)-5-cyanopicolinamide]?
IC50 [1, 7]: 0.639 µM; IC50 ([2]; average IC50): 0.171 µM; IC50 ([3]; average IC50): 1790 µM

`NC1=N[C@](CF)(c2cc(C#Cc3ccc4cc[nH]c4c3)ccc2F)C[C@@H](C(F)(F)F)O1` [Example 132, (4S,6S)-4-(5-((1H-indol-6-yl)ethynyl)-2-fluorophenyl)-4-(fluoromethyl)-6-(trifluoromethyl)-5,6-dihydro-4H-1,3-oxazin-2-amine] was tested. Which IC50 [1, 8] did it give?
The IC50 was 3.1 µM.

What about the IC50 ([2]; average) of the same compound?
Its IC50 is 2.2 µM.

What about the IC50 ([3]; average) of the same compound?
Its IC50 is 721 µM.

Which results are given for `N#Cc1cc(Nc2ccc(F)c([C@]3(CF)C[C@@H](C(F)(F)F)OC(N)=N3)c2)ccn1` [Example 24, 4-((3-((4S,6S)-2-amino-4-(fluoromethyl)-6-(trifluoromethyl)-5,6-dihydro-4H-1,3-oxazin-4-yl)-4-fluorophenyl)amino)picolinonitrile]?
IC50 [1, 4]: 7 µM; IC50 [2, 5]: 19 µM; IC50 [3, 6]: 1760 µM

Which IC50 [1, 4] does the source give for `COc1cnc(C(=O)Nc2cc(F)c(F)c([C@]3(CF)C[C@@H](C(F)(F)F)OC(N)=N3)c2)cn1` [Example 153, N-(3-((4S,6S)-2-amino-4-(fluoromethyl)-6-(trifluoromethyl)-5,6-dihydro-4H-1,3-oxazin-4-yl)-4,5-difluorophenyl)-5-methoxypyrazine-2-carboxamide] here?
The IC50 was 0.126 µM.

What about the IC50 [2, 5] of the same compound?
Its IC50 is 0.05 µM.

What about the IC50 [3, 6] of the same compound?
The IC50 was 3360 µM.

Which IC50 [1, 8] does the source give for `CNC(=O)c1ccc(C#Cc2ccc(F)c([C@]3(CF)C[C@@H](C(F)(F)F)OC(N)=N3)c2)nc1` [Example 126, 6-((3-((4S,6S)-2-amino-4-(fluoromethyl)-6-(trifluoromethyl)-5,6-dihydro-4H-1,3-oxazin-4-yl)-4-fluorophenyl)ethynyl)-N-methylnicotinamide] here?
Its IC50 is 7.46 µM.

And the IC50 ([2]; average)?
Its IC50 is 26.6 µM.

What about the IC50 ([3]; average) of the same compound?
The IC50 was over 400 µM.

With `NC1=N[C@](CF)(c2cc(Nc3nccc4cc(Cl)cnc34)cc(F)c2F)C[C@@H](C(F)(F)F)O1` [Example 161, (4S,6S)-4-(5-((3-chloro-1,7-naphthyridin-8-yl)amino)-2,3-difluorophenyl)-4-(fluoromethyl)-6-(trifluoromethyl)-5,6-dihydro-4H-1,3-oxazin-2-amine] as the compound, how does the IC50 [1, 4] read?
Its IC50 is 0.535 µM.

What about the IC50 [2, 5] of the same compound?
The IC50 was 0.023 µM.

And the IC50 [3, 6]?
The IC50 was over 400 µM.

With `C[C@@]1(c2cc(Nc3ncnc4cc(Cl)cnc34)cnc2F)C[C@@H](C(F)(F)F)OC(N)=N1` [Example 74, (4S,6S)-4-(5-((7-chloropyrido[3,2-d]pyrimidin-4-yl)amino)-2-fluoropyridin-3-yl)-4-methyl-6-(trifluoromethyl)-5,6-dihydro-4H-1,3-oxazin-2-amine] as the compound, how does the IC50 [1, 7] read?
The IC50 was 0.0376 µM.

And the IC50 ([2]; average IC50)?
Its IC50 is 0.088 µM.

What about the IC50 ([3]; average IC50) of the same compound?
Its IC50 is over 400 µM.

With `Cc1cc(OCC(F)(F)F)cnc1C(=O)Nc1cc(C)c(F)c([C@]2(CF)C[C@@H](C(F)(F)F)OC(N)=N2)c1` [Example 220, N-(3-((4S,6S)-2-amino-4-(fluoromethyl)-6-(trifluoromethyl)-5,6-dihydro-4H-1,3-oxazin-4-yl)-4-fluoro-5-methylphenyl)-3-methyl-5-(2,2,2-trifluoroethoxy)picolinamide] as the compound, how does the IC50 [1, 9] read?
Its IC50 is 0.429 µM.

What about the IC50 ([2]; average) of the same compound?
The IC50 was 0.066 µM.

And the IC50 ([3]; average)?
Its IC50 is 263 µM.

`NC1=N[C@](CF)(c2cc(Nc3nccc4nc(C(F)(F)F)cnc34)ccc2F)C[C@@H](C(F)(F)F)O1` [Example 18, (4S,6S)-4-(2-fluoro-5-((2-(trifluoromethyl)pyrido[3,4-b]pyrazin-5-yl)amino)phenyl)-4-(fluoromethyl)-6-(trifluoromethyl)-5,6-dihydro-4H-1,3-oxazin-2-amine] was tested. Which IC50 [1, 4] did it give?
Its IC50 is 0.336 µM.

What about the IC50 [2, 5] of the same compound?
Its IC50 is 0.118 µM.

And the IC50 [3, 6]?
The IC50 was over 14.8 µM.

What does the source list for `Cc1cc(OC(F)F)cnc1C(=O)Nc1ccc(F)c([C@]2(C)C[C@@H](C(F)(F)F)OC(N)=N2)n1` [Example 85, N-(6-((4S,6S)-2-amino-4-methyl-6-(trifluoromethyl)-5,6-dihydro-4H-1,3-oxazin-4-yl)-5-fluoropyridin-2-yl)-5-(difluoromethoxy)-3-methylpicolinamide]?
IC50 [1, 7]: 0.0295 µM; IC50 ([2]; average IC50): 0.103 µM; IC50 ([3]; average IC50): 492 µM

With `C[C@@]1(c2cc(NC(=O)c3nn(C(F)F)cc3Cl)cc(F)c2F)C[C@@H](C(F)(F)F)OC(N)=N1` [Example 196, N-(3-((4S,6S)-2-amino-4-methyl-6-(trifluoromethyl)-5,6-dihydro-4H-1,3-oxazin-4-yl)-4,5-difluorophenyl)-4-chloro-1-(difluoromethyl)-1H-pyrazole-3-carboxamide] as the compound, how does the IC50 [1, 8] read?
Its IC50 is 0.007 µM.

What about the IC50 ([2]; average) of the same compound?
The IC50 was 0.011 µM.

And the IC50 ([3]; average)?
The IC50 was 628 µM.

What does the source list for `NC1=N[C@](CF)(c2cc(Nc3nccc4cn(C(F)F)nc34)ccc2F)C[C@@H](C(F)(F)F)O1` [Example 20, (4S,6S)-4-(5-((2-(difluoromethyl)-2H-pyrazolo[3,4-c]pyridin-7-yl)amino)-2-fluorophenyl)-4-(fluoromethyl)-6-(trifluoromethyl)-5,6-dihydro-4H-1,3-oxazin-2-amine 2,2,2-trifluoroacetate]?
IC50 [1, 9]: 10.6 µM; IC50 [2, 5]: 33 µM; IC50 [3, 6]: > 400 µM

For `NC1=N[C@](CF)(c2cc(Oc3cccc(C(F)(F)F)n3)ccc2F)C[C@@H](C(F)(F)F)O1` [Example 110, (4S,6S)-4-(2-fluoro-5-((6-(trifluoromethyl)pyridin-2-yl)oxy)phenyl)-4-(fluoromethyl)-6-(trifluoromethyl)-5,6-dihydro-4H-1,3-oxazin-2-amine], which IC50 [1, 7] is on record?
Its IC50 is 4.56 µM.

And the IC50 ([2]; average IC50)?
The IC50 was 3.41 µM.

What about the IC50 ([3]; average IC50) of the same compound?
The IC50 was 1820 µM.

How did the IC50 [1, 9] turn out when `C[C@@]1(c2cc(NC(=O)c3ncc(C#N)cc3Cl)cnc2F)C[C@@H](C(F)(F)F)OC(N)=N1` [Example 66, N-(5-((4S,6S)-2-amino-4-methyl-6-(trifluoromethyl)-5,6-dihydro-4H-1,3-oxazin-4-yl)-6-fluoropyridin-3-yl)-3-chloro-5-cyanopicolinamide] was run?
Its IC50 is 0.0351 µM.

What about the IC50 ([2]; average IC50) of the same compound?
The IC50 was 0.0605 µM.

What about the IC50 ([3]; average IC50) of the same compound?
Its IC50 is over 400 µM.

What does the source list for `COc1cnc(C(=O)Nc2cc(Cl)c(F)c([C@]3(C)C[C@@H](C(F)(F)F)OC(N)=N3)c2)cn1` [Example 208, N-(3-((4S,6S)-2-amino-4-methyl-6-(trifluoromethyl)-5,6-dihydro-4H-1,3-oxazin-4-yl)-5-chloro-4-fluorophenyl)-5-methoxypyrazine-2-carboxamide]?
IC50 [1, 9]: 0.003 µM; IC50 ([2]; average): 0.012 µM; IC50 ([3]; average): 394 µM

What does the source list for `C[C@@]1(c2cc(NC(=O)c3cnc(OCc4ncco4)cn3)cc(F)c2F)C[C@@H](C(F)(F)F)OC(N)=N1` [Example 204, N-(3-((4S,6S)-2-amino-4-methyl-6-(trifluoromethyl)-5,6-dihydro-4H-1,3-oxazin-4-yl)-4,5-difluorophenyl)-5-(oxazol-2-ylmethoxy)pyrazine-2-carboxamide]?
IC50 [1, 9]: 0.003 µM; IC50 ([2]; average): 0.006 µM; IC50 ([3]; average): 1040 µM
